From ChEMBL document CHEMBL1201862, “PubChem BioAssay data set” (2004) come the findings set out here.

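Each compound was tested at five concentrations against cells in 96-well plates for 48 hours. Here, GI50 denotes the concentration required for 50% inhibition of growth.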 The source made the active and inactive calls. No stated cut-off is given here; in the data, active = GI50 up to about 1.1 µM and inactive = higher.

Common to all, as to experiment: inhibition of tumour cell growth, NCI panel, 48 h
The test system of test [1] is MDA-MB-231.
The subject of test [2] is SN12C.
Test [3] deals with OVCAR-4.
Test [4] concerns Malme-3M.
Test [5] deals with SF-295.
Test [6] relates to HT-29.
For test [7], the system named is T47D.
Test [8] relates to SNB-75.
Test [9] concerns HL-60.
The subject of test [10] is SR.
Test [11] concerns SK-OV-3.
For test [12], the system named is TK-10.
Test [13] deals with MDA-MB-435.
Test [14] relates to HOP-62.
Test [15] relates to 786-0.
Test [16] relates to DU-145.
The test system of test [17] is UO-31.
Test [18] concerns SF-268.
Test [19] relates to U-251.
Test [20] relates to HCC 2998.

For the molecule `CC(CO)CCNc1ncnc2c1ncn2CCC(=O)O` (configuration not stated), the GI50 in test [1], in test [2], in test [3], in [4], in [5] and in test [6] was > 100 µM (inactive) throughout. For the same molecule, the GI50 in test [7], in test [8], in [9], in test [10], in test [11] and in [12] was > 100 µM (inactive) each time. In addition, the GI50 in test [13], in test [14], in test [15], in test [16], in test [17] and in test [18] was > 100 µM (inactive) throughout.

With `CC(C)(C)c1ccc(CN2CCN(C(c3ccccc3)c3ccc(Cl)cc3)CC2)cc1` (configuration not stated), the GI50 in test [1] is > 100 µM (inactive); in test [2] it was > 100 µM (inactive); in test [3], > 100 µM (inactive); in [4], 45.6 µM (inactive); in test [5], 37.9 µM (inactive); in test [19], 45.1 µM (inactive). Besides, the GI50 in test [6] was 20.3 µM (inactive); in test [7], 24.2 µM (inactive); in test [8], > 100 µM (inactive); in test [10], 62.2 µM (inactive); in test [11], > 100 µM (inactive); in test [12] it was > 100 µM (inactive). In addition, the GI50 was 57.9 µM (inactive) in test [13]; > 100 µM (inactive) in test [14]; 42.4 µM (inactive) in [15]; 31 µM (inactive) in test [20]; > 100 µM (inactive) in test [16]; 63.5 µM (inactive) in test [17]. In addition, the GI50 in test [18] was 77.6 µM (inactive).

Consider `NCc1nnn(Cc2ccccc2)c1N`, for which the GI50 in test [1], in test [2], in test [3], in test [4], in test [5] and in test [19] was > 100 µM (inactive) each time. Moreover, the GI50 in [6], in [7], in test [8], in [9], in [10] and in [11] was > 100 µM (inactive) each time. The GI50 in test [12], in test [13], in [14], in test [15], in [16] and in [18] was > 100 µM (inactive) throughout.

For `COc1cc2c[n+](C)c3c(c2cc1OC)Cc1cc2c(cc1-3)OCO2`, the GI50 in test [1] is > 100 µM (inactive); in test [2], > 100 µM (inactive); in test [3], 87.3 µM (inactive); in test [4], > 100 µM (inactive); in test [5], > 100 µM (inactive); in test [19], > 100 µM (inactive). Besides, the GI50 was > 100 µM (inactive) in [6]; > 100 µM (inactive) in test [7]; > 100 µM (inactive) in [8]; > 100 µM (inactive) in test [9]; 29.1 µM (inactive) in test [10]; > 100 µM (inactive) in test [11]. Moreover, the GI50 in test [12], in test [13], in test [14], in test [15], in [16] and in [17] was > 100 µM (inactive) each time. The GI50 in [18] was > 100 µM (inactive).

On to `CC[C@H]1C=CCC[C@@]2(C[C@@H]3CC[C@@H]4[C@H](C(=O)OCCCCCCCCCCCCCCCC(=O)O)[C@]5(CCC[C@@H](C)O5)NC(=[N+]34)N2)O1` [CRAMBESCIDIN 657], for which the GI50 is 0.281 µM (active) in test [1]; 0.418 µM (active) in test [2]; 0.157 µM (active) in test [3]; 0.153 µM (active) in test [4]; 0.163 µM (active) in test [5]; 0.183 µM (active) in test [19]. Besides, the GI50 in test [6] is 0.116 µM (active); in test [7], 0.32 µM (active); in test [9], 0.151 µM (active); in test [10], 0.0521 µM (active); in [11] it was 5.38 µM (inactive); in [12] it was 0.367 µM (active). The GI50 in test [13] is 0.141 µM (active); in test [14] it was 0.367 µM (active); in test [15] it was 0.0964 µM (active); in test [20] it was 0.0973 µM (active); in [16] it was 0.191 µM (active); in test [17] it was 0.125 µM (active). Besides, in test [18], the GI50 was 0.367 µM (active).

As for `CCN1C/C(=C\c2ccc(Cl)cc2)c2[nH]c(=O)c(C#N)c(-c3ccc(Cl)cc3)c2C1`, the GI50 in test [1], in test [2], in test [3], in test [4], in test [19] and in test [6] was > 100 µM (inactive) each time. Also, the GI50 in test [7] is > 100 µM (inactive); in [9], > 100 µM (inactive); in test [10], 18.4 µM (inactive); in test [11], > 100 µM (inactive); in [12], > 100 µM (inactive); in test [13], > 100 µM (inactive). Also, the GI50 in test [14], in [15], in test [20], in [16] and in test [18] was > 100 µM (inactive) in each case.

Take `CC1(C)[C@@H]2CC[C@@]1(C)[C@H](O)[C@@H]2SCc1ccccc1`: the GI50 was 16.8 µM (inactive) in test [1]; 17.8 µM (inactive) in test [2]; 12.9 µM (inactive) in test [3]; 18.1 µM (inactive) in test [5]; 17.1 µM (inactive) in test [19]; 14.7 µM (inactive) in test [6]. For the same molecule, the GI50 was 24 µM (inactive) in [7]; 27.4 µM (inactive) in test [8]; 25.5 µM (inactive) in [9]; 28.8 µM (inactive) in test [10]; 20.5 µM (inactive) in test [11]; 22.6 µM (inactive) in [12]. Further, the GI50 is 18.2 µM (inactive) in [13]; 17.9 µM (inactive) in [14]; 17 µM (inactive) in test [15]; 19.5 µM (inactive) in [20]; 19.9 µM (inactive) in test [16]; 21 µM (inactive) in [17]. Besides, the GI50 in [18] is 17.3 µM (inactive).

Consider `COc1cccc(-c2nc(O)c3ccccc3n2)c1`, for which the GI50 is 25.3 µM (inactive) in test [1]; 33.9 µM (inactive) in test [2]; 21.6 µM (inactive) in test [4]; 32.1 µM (inactive) in [5]; 7.31 µM (inactive) in test [19]; 21.2 µM (inactive) in [6]. The GI50 was 21.8 µM (inactive) in test [7]; > 100 µM (inactive) in test [9]; > 100 µM (inactive) in test [10]; 19.7 µM (inactive) in test [11]; 17.9 µM (inactive) in test [12]; 14.9 µM (inactive) in [13]. Also, the GI50 in test [14] is 17.5 µM (inactive); in [15] it was 14.9 µM (inactive); in test [20], 22.3 µM (inactive); in test [16], 29.1 µM (inactive); in [17], 22.4 µM (inactive); in test [18] it was 19.4 µM (inactive).
